Values quoted from earlier work, collected in patent US20070135423A1, “E-fluoro-4-(pyridin-2-yl)-piperidine-1-carboxamide derivatives and related compounds which modulate the function of the vanilloid-1 receptor (vr1) for the treatment of pain” (priority 2003, published 2007).

Molecular target: VR1 (Rattus norvegicus, UniProt O35433)
Conditions: Wahl et al., Mol. Pharmacol, 59:9, 2001

VR1, sequence (O35433 whole entry): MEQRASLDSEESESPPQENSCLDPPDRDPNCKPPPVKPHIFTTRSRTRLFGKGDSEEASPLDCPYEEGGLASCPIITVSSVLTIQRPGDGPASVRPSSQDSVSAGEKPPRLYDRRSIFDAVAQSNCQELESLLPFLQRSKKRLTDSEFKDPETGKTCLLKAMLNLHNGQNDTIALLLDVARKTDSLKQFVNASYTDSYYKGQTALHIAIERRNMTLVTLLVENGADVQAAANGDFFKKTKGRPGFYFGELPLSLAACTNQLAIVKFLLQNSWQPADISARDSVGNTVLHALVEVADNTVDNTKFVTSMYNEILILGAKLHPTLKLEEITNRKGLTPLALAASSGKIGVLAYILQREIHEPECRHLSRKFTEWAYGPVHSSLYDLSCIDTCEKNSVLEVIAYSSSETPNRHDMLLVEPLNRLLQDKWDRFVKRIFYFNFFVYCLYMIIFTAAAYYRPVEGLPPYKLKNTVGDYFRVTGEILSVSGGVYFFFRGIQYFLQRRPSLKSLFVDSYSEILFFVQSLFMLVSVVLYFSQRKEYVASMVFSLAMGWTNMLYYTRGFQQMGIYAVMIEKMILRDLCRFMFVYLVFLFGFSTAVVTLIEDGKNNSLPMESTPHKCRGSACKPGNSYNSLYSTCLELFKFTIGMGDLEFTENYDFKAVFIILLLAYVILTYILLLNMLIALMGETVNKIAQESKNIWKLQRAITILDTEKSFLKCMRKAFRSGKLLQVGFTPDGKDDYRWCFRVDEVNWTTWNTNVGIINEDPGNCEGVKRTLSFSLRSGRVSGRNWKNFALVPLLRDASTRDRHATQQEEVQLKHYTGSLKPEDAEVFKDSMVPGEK

Structure (SMILES): C=C(C)[C@]12C[C@@H](C)[C@@]34O[C@](Cc5ccccc5)(O[C@@H]1[C@@H]3C=C(COC(=O)Cc1cc(I)c(O)c(OC)c1)C[C@]1(O)C(=O)C(C)=C[C@@H]41)O2 [Iodo-resiniferatoxin]
- VR1 antagonist potency (in words): nanomolar antagonist
